Measurements as given in publication PMC3749252 (Nature chemical biology, 2013).

How the values were obtained:
mouse Smoothened (mSmo) [1] = biological target: T1, mouse Smoothened (mSmo) (Mus musculus, UniProt P56726); assay: competition of binding to 20-OHC affinity beads, immunoblot
T1 sequence (P56726 32-236): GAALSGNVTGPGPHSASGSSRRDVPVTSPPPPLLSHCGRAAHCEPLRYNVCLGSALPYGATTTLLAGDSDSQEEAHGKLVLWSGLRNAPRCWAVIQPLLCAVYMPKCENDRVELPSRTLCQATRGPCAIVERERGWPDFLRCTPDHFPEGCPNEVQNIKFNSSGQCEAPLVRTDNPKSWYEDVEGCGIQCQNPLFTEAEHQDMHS

mouse Smoothened (mSmo) [2] = biological target: T1, mouse Smoothened (mSmo); assay: competition of 22-NHC bead binding

**Q.** For `C[C@H](CCCC(C)(C)O)[C@H]1CC[C@H]2[C@@H]3CC=C4C[C@@H](O)CC[C@]4(C)[C@H]3CC[C@]12C` [25-OHC], which “competition of binding to 20-OHC affinity beads, immunoblot” value (mouse Smoothened (mSmo) [1]) is on record?
**A.** The value was “binding of mSmo and mSmoCRD to 20-OHC beads was competed by the active oxysterol 25-OHC”.

**Q.** For `CC(C)CCC[C@](C)(O)[C@H]1CC[C@H]2[C@@H]3CC=C4C[C@@H](O)CC[C@]4(C)[C@H]3CC[C@@]21C` [20(S)-hydroxycholesterol], which “competition of 22-NHC bead binding; 20-OHC affinity beads, immunoblot” value (mouse Smoothened (mSmo) [2]) is on record?
**A.** Its value is “Binding of mSmoCRD to 22-NHC beads was competed by 20-OHC and 20-OHC-Pent, but not by 7-OHC”.
